According to US20230148600A1, “PESTICIDALLY ACTIVE THIOPHENE DERIVATIVES” (SYNGENTA PARTICIPATIONS AG, priority 2017, published 2023):

What was measured:
Assay type in all cases: in vivo
[1] = test system: Tetranychus Urticae (Two-Spotted Spider Mite); assay: Tetranychus urticae (two-spotted spider mite) feeding/contact activity; conditions: foliar, 192 h, application rate 200 ppm, bean leaf discs sprayed, mite population of mixed ages, assessed 8 days after infestation, read-out: mortality on mixed population (mobile stages)
Experimental: Tetranychus Urticae (Two-Spotted Spider Mite) Feeding/Contact Activity
Bean leaf discs on agar in 24-well microtiter plates were sprayed with aqueous test solutions prepared from 10 ′000 ppm DMSO stock solutions. After drying the leaf discs were infested with a mite population of mixed ages. The samples were assessed for mortality on mixed population (mobile stages) 8 days after infestation.

[2] = test system: Diabrotica Balteata (Corn Root Worm); assay: Diabrotica balteata (corn root worm) mortality on sprayed maize sprouts; conditions: 96 h, application rate 200 ppm, L2 larvae, assessed 4 days after infestation
Experimental: Diabrotica Balteata (Corn Root Worm)
Maize sprouts placed onto an agar layer in 24-well microtiter plates were treated with aqueous test solutions prepared from 10 ′000 ppm DMSO stock solutions by spraying. After drying, the plates were infested with L2 larvae (6 to 10 per well). The samples were assessed for mortality 4 days after infestation.

[3] = test system: Spodoptera Littoralis (Egyptian Cotton Leaf Worm); assay: Spodoptera littoralis (Egyptian cotton leaf worm) feeding/contact activity; conditions: foliar, 72 h, application rate 200 ppm, cotton leaf discs sprayed, L1 larvae, assessed 3 days after infestation
Experimental: Spodoptera Littoralis (Egyptian Cotton Leaf Worm) Feeding/Contact Activity
Cotton leaf discs were placed onto agar in 24-well microtiter plates and sprayed with aqueous test solutions prepared from 10 ′000 ppm DMSO stock solutions. After drying the leaf discs were infested with five L1 larvae. The samples were assessed for mortality 3 days after infestation.

[4] = test system: Euschistus Heros (Neotropical BROWN Stink Bug); assay: Euschistus heros (neotropical brown stink bug) feeding/contact activity; conditions: 120 h, application rate 200 ppm, soybean leaves sprayed, N2 nymphs, assessed 5 days after infestation
Experimental: Euschistus Heros (Neotropical BROWN Stink Bug) Feeding/Contact Activity
Soybean leaves on agar in 24-well microtiter plates were sprayed with aqueous test solutions prepared from 10 ′000 ppm DMSO stock solutions. After drying the leaves were infested with N2 nymphs. The samples were assessed for mortality 5 days after infestation.

[5] = test system: Plutella Xylostella (Diamond Back Moth); assay: Plutella xylostella (diamond back moth) feeding/contact activity; conditions: 120 h, application rate 200 ppm, artificial diet treated by pipetting, L2 larvae, assessed 5 days after infestation
Experimental: Plutella Xylostella (Diamond Back Moth) Feeding/Contact Activity
24-well microtiter plates with artificial diet were treated with aqueous test solutions prepared from 10 ′000 ppm DMSO stock solutions by pipetting. After drying, the plates were infested with L2 larvae (10 to 15 per well). The samples were assessed for mortality 5 days after infestation.

[6] = test system: Myzus Persicae (Green Peach Aphid); assay: Myzus persicae (green peach aphid) feeding/contact activity; conditions: foliar, 144 h, application rate 200 ppm, sunflower leaf discs sprayed, aphid population of mixed ages, assessed 6 days after infestation
Experimental: Myzus Persicae (Green Peach Aphid) Feeding/Contact Activity
(§1) Sunflower leaf discs were placed onto agar in a 24-well microtiter plate and sprayed with aqueous test solutions prepared from 10 ′000 ppm DMSO stock solutions. After drying, the leaf discs were infested with an aphid population of mixed ages. The samples were assessed for mortality 6 days after infestation.

[7] = test system: Thrips Tabaci (Onion Thrips); assay: Thrips tabaci (onion thrips) feeding/contact activity; conditions: foliar, 144 h, application rate 200 ppm, sunflower leaf discs sprayed, thrips population of mixed ages, assessed 6 days after infestation
Experimental: Thrips Tabaci (Onion Thrips) Feeding/Contact Activity
as §1, with “on” for “onto”, “in” for “in a”, “plates” for “plate”, “drying” for “drying,”, “a thrips” for “an aphid”

Measured: mortality at 200 ppm

N#Cc1sc(-c2cnn(-c3c(Cl)cc(C(F)(C(F)(F)F)C(F)(F)F)cc3Cl)c2)cc1C(=O)NC1CC1 [Example 1, 2-cyano-N-cyclopropyl-5-[1-[2,6-dichloro-4-[1,2,2,2-tetrafluoro-1-(trifluoromethyl)ethyl]phenyl]pyrazol-4-yl]thiophene-3-carboxamide]
≥ 80%: all assays above

O=C(NC1CC1)c1cc(-c2cnn(-c3c(Cl)cc(C(F)(C(F)(F)F)C(F)(F)F)cc3Cl)c2)sc1Cl [Example 2, 2-chloro-N-cyclopropyl-5-[1-[2,6-dichloro-4-[1,2,2,2-tetrafluoro-1-(trifluoromethyl)ethyl]phenyl]pyrazol-4-yl]thiophene-3-carboxamide]
≥ 80%: all assays above

N#Cc1sc(-c2cnn(-c3c(Cl)cc(C(F)(C(F)(F)F)C(F)(F)F)cc3Cl)c2)cc1C(=O)NC1(C#N)CC1 [Example 3, 2-cyano-N-(1-cyanocyclopropyl)-5-[1-[2,6-dichloro-4-[1,2,2,2-tetrafluoro-1-(trifluoromethyl)ethyl]phenyl]pyrazol-4-yl]thiophene-3-carboxamide]
not listed: [6]
≥ 80%: all other assays above

N#CC1(NC(=O)c2cc(-c3cnn(-c4c(Cl)cc(C(F)(C(F)(F)F)C(F)(F)F)cc4Cl)c3)sc2Cl)CC1 [Example 4, 2-chloro-N-(1-cyanocyclopropyl)-5-[1-[2,6-dichloro-4-[1,2,2,2-tetrafluoro-1-(trifluoromethyl)ethyl]phenyl]pyrazol-4-yl]thiophene-3-carboxamide]
≥ 80%: all assays above

Cc1cc(C(F)(C(F)(F)F)C(F)(F)F)cc(C)c1-n1cc(-c2cc(C(=O)NC3CC3)c(C#N)s2)cn1 [Example 5, 2-cyano-N-cyclopropyl-5-[1-[2,6-dimethyl-4-[1,2,2,2-tetrafluoro-1-(trifluoromethyl)ethyl]phenyl]pyrazol-4-yl]thiophene-3-carboxamide]
not listed: [2] | [7]
≥ 80%: all other assays above

N#CC1(NC(=O)c2cc(-c3cnn(-c4ccc(C(F)(C(F)(F)F)C(F)(F)F)cc4Cl)c3)sc2Cl)CC1 [Example 6, 2-chloro-5-[1-[2-chloro-4-[1,2,2,2-tetrafluoro-1-(trifluoromethyl)ethyl]phenyl]pyrazol-4-yl]-N-(1-cyanocyclopropyl)thiophene-3-carboxamide]
≥ 80%: [1] | [3] | [4] | [5]

N#CC1(NC(=O)c2cc(-c3cnn(-c4c(Cl)cc(C(F)(C(F)(F)F)C(F)(F)F)cc4Br)c3)sc2Cl)CC1 [Example 7, 5-[1-[2-bromo-6-chloro-4-[1,2,2,2-tetrafluoro-1-(trifluoromethyl)ethyl]phenyl]pyrazol-4-yl]-2-chloro-N-(1-cyanocyclopropyl)thiophene-3-carboxamide]
≥ 80%: [1] | [3] | [4] | [5]

N#Cc1sc(-c2cnn(-c3ccc(C(F)(C(F)(F)F)C(F)(F)F)cc3Cl)c2)cc1C(=O)NC1CC1 [Example 8, 5-[1-[2-chloro-4-[1,2,2,2-tetrafluoro-1-(trifluoromethyl)ethyl]phenyl]pyrazol-4-yl]-2-cyano-N-cyclopropyl-thiophene-3-carboxamide]
not listed: [2] | [7]
≥ 80%: all other assays above

Cc1cc(C(F)(C(F)(F)F)C(F)(F)F)cc(C)c1-n1cc(-c2cc(C(=O)NC3(C#N)CC3)c(Cl)s2)cn1 [Example 10, 2-chloro-N-(1-cyanocyclopropyl)-5-[1-[2,6-dimethyl-4-[1,2,2,2-tetrafluoro-1-(trifluoromethyl)ethyl]phenyl]pyrazol-4-yl]thiophene-3-carboxamide]
not listed: [6]
≥ 80%: all other assays above

CCN(C(=O)c1cc(-c2cn(-c3c(Cl)cc(C(F)(C(F)(F)F)C(F)(F)F)cc3Cl)nn2)sc1C#N)C1CC1 [Example 11, 2-cyano-N-cyclopropyl-5-[1-[2,6-dichloro-4-[1,2,2,2-tetrafluoro-1-(trifluoromethyl)ethyl]phenyl]triazol-4-yl]-N-ethyl-thiophene-3-carboxamide]
not listed: [4] | [6]
≥ 80%: all other assays above

CN(C(=O)c1cc(-c2cn(-c3c(Cl)cc(C(F)(C(F)(F)F)C(F)(F)F)cc3Cl)nn2)sc1C#N)C1CC1 [Example 12, 2-cyano-N-cyclopropyl-5-[1-[2,6-dichloro-4-[1,2,2,2-tetrafluoro-1-(trifluoromethyl)ethyl]phenyl]triazol-4-yl]-N-methyl-thiophene-3-carboxamide]
not listed: [6]
≥ 80%: all other assays above

N#Cc1sc(-c2cn(-c3c(Cl)cc(C(F)(C(F)(F)F)C(F)(F)F)cc3Cl)nn2)cc1C(=O)NC1CC1 [Example 13, 2-cyano-N-cyclopropyl-5-[1-[2,6-dichloro-4-[1,2,2,2-tetrafluoro-1-(trifluoromethyl)ethyl]phenyl]triazol-4-yl]thiophene-3-carboxamide]
≥ 80%: [2] | [3] | [5] | [7]

CCN(C(=O)c1cc(-c2cn(-c3c(Cl)cc(C(F)(C(F)(F)F)C(F)(F)F)cc3Cl)nn2)sc1Cl)C1(C#N)CC1 [Example 14, 2-chloro-N-(1-cyanocyclopropyl)-5-[1-[2,6-dichloro-4-[1,2,2,2-tetrafluoro-1-(trifluoromethyl)ethyl]phenyl]triazol-4-yl]-N-ethyl-thiophene-3-carboxamide]
≥ 80%: [2] | [3] | [5] | [7]

CN(C(=O)c1cc(-c2cn(-c3c(Cl)cc(C(F)(C(F)(F)F)C(F)(F)F)cc3Cl)nn2)sc1Cl)C1(C#N)CC1 [Example 15, 2-chloro-N-(1-cyanocyclopropyl)-5-[1-[2,6-dichloro-4-[1,2,2,2-tetrafluoro-1-(trifluoromethyl)ethyl]phenyl]triazol-4-yl]-N-methyl-thiophene-3-carboxamide]
≥ 80%: [2] | [3] | [5] | [7]

N#CC1(NC(=O)c2cc(-c3cn(-c4c(Cl)cc(C(F)(C(F)(F)F)C(F)(F)F)cc4Cl)nn3)sc2Cl)CC1 [Example 16, 2-chloro-N-(1-cyanocyclopropyl)-5-[1-[2,6-dichloro-4-[1,2,2,2-tetrafluoro-1-(trifluoromethyl)ethyl]phenyl]triazol-4-yl]thiophene-3-carboxamide]
≥ 80%: [3] | [7]
